# Data from ChEMBL document CHEMBL1156493, “Histone deacetylase inhibitors suppress TF-kappaB-dependent agonist-driven tissue factor expression in endothelial cells and monocytes” (J Biol Chem, 2007).
# Calls of active or inactive are those of the source. The rule behind the calls is not given here.
# Assays:
# [1] = target: Tissue factor (Homo sapiens) (UniProt P13726); assay: Inhibition of TNF-alpha-induced tissue factor activity in HUVEC at 6 uM preincubated for 4 hrs assessed after 4 hrs of TNFalpha challenge by one stage clotting assay; format: cell-based
# [2] = target: Tissue factor (Homo sapiens) (UniProt P13726); assay: Inhibition of LPS-induced tissue factor activity in HUVEC at 6 uM preincubated for 4 hrs assessed after 4 hrs of LPS challenge by one stage clotting assay; format: cell-based
# [3] = target: Tissue factor (Homo sapiens) (UniProt P13726); assay: Inhibition of TNF-alpha-induced tissue factor activity in HUVEC at 10 uM preincubated for 4 hrs assessed after 4 hrs of TNFalpha challenge by one stage clotting assay; format: cell-based
# [4] = target: Tissue factor (Homo sapiens) (UniProt P13726); assay: Inhibition of LPS-induced tissue factor activity in HUVEC at 10 uM preincubated for 4 hrs assessed after 4 hrs of LPS challenge by one stage clotting assay; format: cell-based
# [5] = target: Tissue factor (Homo sapiens) (UniProt P13726); assay: Inhibition of LPS-induced tissue factor activity in HUVEC at 30 uM preincubated for 4 hrs assessed after 4 hrs of LPS challenge by one stage clotting assay; format: cell-based
# [6] = target: Tissue factor (Homo sapiens) (UniProt P13726); assay: Inhibition of TNF-alpha-induced tissue factor activity in HUVEC at 30 uM preincubated for 4 hrs assessed after 4 hrs of TNFalpha challenge by one stage clotting assay
# HUVEC [7] = assay: Effect on TNF-alpha-induced Egr1 protein level in HUVEC preincubated for 4 hrs assessed after 0.5 hrs of TNFalpha challenge by Western blotting; format: functional, cell-based; conditions: Homo sapiens
# HUVEC [8] = assay: Inhibition of TNF-alpha-induced p65 binding to ICAM1 NF-kappaB in HUVEC preincubated for 4 hrs assessed after 0.5 hrs of TNFalpha challenge by chromatin immunoprecipitation assay; format: cell-based; conditions: Homo sapiens
# HUVEC [9] = assay: Effect on TNF-alpha-induced TFkappaB activation assessed as p65/p50 binding to TFkappaB in HUVEC preincubated for 4 hrs measured after 0.5 hrs of TNFalpha challenge by electrophoretic shift mobility assay; format: cell-based; conditions: Homo sapiens
# HUVEC [10] = assay: Inhibition of LPS-induced wild type TFkappaB-dependent tissue factor promoter expression in HUVEC preincubated for 4 hrs assessed after 6 hrs of LPS challenge by luciferase reporter assay; format: cell-based; conditions: Homo sapiens
# [11] = target: Tissue factor (Homo sapiens) (UniProt P13726); assay: Inhibition of TNF-alpha-induced tissue factor activity in HUVEC at 1 uM preincubated for 4 hrs assessed after 4 hrs of TNFalpha challenge by one stage clotting assay; format: cell-based
# HUVEC [12] = assay: Effect on TNF-alpha-induced NF-kappaB activation in HUVEC preincubated for 4 hrs assessed as increase in c-Rel level after 0.5 hrs of TNFalpha challenge by electrophoretic shift mobility assay; format: cell-based; conditions: Homo sapiens
# HUVEC [13] = assay: Reduction of tissue factor mRNA level in TNF-alpha-stimulated HUVEC at 1 uM preincubated for 4 hrs assessed after 1 to 2 hrs of TNFalpha challenge by RT-PCR; format: functional, cell-based; conditions: Homo sapiens
# HUVEC [14] = assay: Inhibition of IL-1-beta-induced tissue factor protein expression in HUVEC preincubated for 4 hrs assessed after 4 hrs of IL1-beta challenge by Western blotting; format: functional, cell-based; conditions: Homo sapiens
# HUVEC [15] = assay: Increase in acetylated histone H4 level in HUVEC preincubated for 4 hrs assessed after 0.5 hrs of TNFalpha challenge by Western blot; format: functional, cell-based; conditions: Homo sapiens
# Mus musculus = assay: Decrease in thioglycolate-induced tissue factor activity in C57BL/6J mouse macrophage at 1 mg/kg, ip preincubated for 4 hrs assessed after 5 hrs of thioglycolate challenge by one stage clotting assay; format: functional; design: scale not given: the % may be the effect or the level left; conditions: route intraperitoneal
# HUVEC [16] = assay: Increase in acetylated histone H3 level in HUVEC preincubated for 4 hrs assessed after 0.5 hrs of TNFalpha challenge by Western blot; format: functional, cell-based; conditions: Homo sapiens
# HUVEC [17] = assay: Inhibition of TNF-alpha-induced tissue factor protein expression in HUVEC preincubated for 4 hrs assessed after 4 hrs of TNFalpha challenge by Western blotting; format: functional, cell-based; conditions: Homo sapiens
# HUVEC [18] = assay: Effect on TNF-alpha-induced IkappaB degradation in HUVEC at 1 uM preincubated for 4 hrs assessed after 60 mins of TNFalpha challenge by Western blotting; format: functional, cell-based; conditions: Homo sapiens
# [19] = target: T1, Tissue factor (Mus musculus) (UniProt P20352); assay: Inhibition of TNF-alpha-induced tissue factor activity in C57BL/6J mouse macrophages preincubated for 4 hrs assessed after 5 hrs of TNFalpha challenge by one stage clotting assay; conditions: concentration not given here
# T1 sequence (whole entry): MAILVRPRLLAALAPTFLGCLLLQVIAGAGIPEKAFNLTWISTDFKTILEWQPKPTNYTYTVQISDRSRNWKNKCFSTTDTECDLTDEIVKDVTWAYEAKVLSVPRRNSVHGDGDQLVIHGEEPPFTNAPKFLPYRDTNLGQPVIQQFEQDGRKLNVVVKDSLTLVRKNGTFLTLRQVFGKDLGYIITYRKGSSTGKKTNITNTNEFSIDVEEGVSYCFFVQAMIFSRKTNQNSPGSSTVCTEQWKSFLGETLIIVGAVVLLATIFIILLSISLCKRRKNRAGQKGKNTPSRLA
# HUVEC [20] = assay: Effect on TNF-alpha-induced NF-kappaB activation assessed as p65/p50 binding to NF-kappaB in HUVEC at 0.3 uM preincubated for 4 hrs measured after 0.5 hrs of TNFalpha challenge by electrophoretic shift mobility assay; format: cell-based; conditions: Homo sapiens
# HUVEC [21] = assay: Induction of PMA-induced wild type NF-kappaB-dependent ICAM promoter expression in HUVEC preincubated for 4 hrs assessed after 6 hrs of PMA challenge by luciferase reporter assay relative to control; format: cell-based; conditions: Homo sapiens
# HUVEC [22] = assay: Effect on TNF-alpha-induced TFkappaB activation assessed as p65/c-Rel binding to TFkappaB in HUVEC preincubated for 4 hrs measured after 0.5 hrs of TNFalpha challenge by electrophoretic shift mobility assay; format: cell-based; conditions: Homo sapiens
# [23] = target: T1, Tissue factor (Mus musculus); assay: Inhibition of IL-1-beta-induced tissue factor activity in C57BL/6J mouse macrophages preincubated for 4 hrs assessed after 5 hrs of IL1-beta challenge by one stage clotting assay; conditions: concentration not given here
# HUVEC [24] = assay: Inhibition of TNF-alpha-induced p65 binding to TFkappaB in HUVEC preincubated for 4 hrs assessed after 0.5 hrs of TNFalpha challenge by chromatin immunoprecipitation assay; format: cell-based; conditions: Homo sapiens
# HUVEC [25] = assay: Inhibition of TNFalpha induced wild type TFkappaB-dependent tissue factor promoter expression in HUVEC preincubated for 4 hrs assessed after 6 hrs of TNFalpha challenge by luciferase reporter assay; format: cell-based; conditions: Homo sapiens
# [26] = target: T1, Tissue factor (Mus musculus); assay: Inhibition of LPS-induced tissue factor activity in C57BL/6J mouse macrophages preincubated for 4 hrs assessed after 5 hrs of LPS challenge by one stage clotting assay; conditions: concentration not given here
# [27] = target: T1, Tissue factor (Mus musculus); assay: Inhibition of baseline tissue factor activity in non-stimulated C57BL/6J mouse macrophages after 4 hrs by one stage clotting assay; conditions: concentration not given here
# HUVEC [28] = assay: Effect on TNF-alpha-induced SP1 protein level in HUVEC preincubated for 4 hrs assessed after 0.5 hrs of TNFalpha challenge by Western blotting; format: functional, cell-based; conditions: Homo sapiens
# HUVEC [29] = assay: Effect on TNF-alpha-induced NF-kappaB activation assessed as p65/p50 binding to NF-kappaB in HUVEC at 1 uM preincubated for 4 hrs measured after 0.5 hrs of TNFalpha challenge by electrophoretic shift mobility assay; format: cell-based; conditions: Homo sapiens
# HUVEC [30] = assay: Reduction of ICAM1 mRNA level in TNF-alpha-stimulated HUVEC at 1 uM preincubated for 4 hrs assessed after 1 to 2 hrs of TNFalpha challenge by RT-PCR; format: functional, cell-based; conditions: Homo sapiens
# [31] = target: Tissue factor (Homo sapiens) (UniProt P13726); assay: Inhibition of LPS-induced tissue factor activity in HUVEC at 0.3 uM preincubated for 4 hrs assessed after 4 hrs of LPS challenge by one stage clotting assay
# HUVEC [32] = assay: Induction of PMA-induced wild type TFkappaB-dependent tissue factor promoter expression in HUVEC at 100 nM preincubated for 4 hrs assessed after 6 hrs of PMA challenge by luciferase reporter assay; format: cell-based; conditions: Homo sapiens
# HUVEC [33] = assay: Effect on LPS-induced wild type NF-kappaB-dependent ICAM1 promoter expression in HUVEC preincubated for 4 hrs assessed after 6 hrs of LPS challenge by luciferase reporter assay; format: cell-based; conditions: Homo sapiens
# HUVEC [34] = assay: Effect on TNF-alpha-induced wild type NF-kappaB-dependent ICAM1 promoter expression in HUVEC preincubated for 4 hrs assessed after 6 hrs of TNFalpha challenge by luciferase reporter assay; format: cell-based; conditions: Homo sapiens
# HUVEC [35] = assay: Inhibition of HOSCN-induced tissue factor protein expression in HUVEC preincubated for 4 hrs assessed after 4 hrs of HOSCN challenge by Western blotting; format: functional, cell-based; conditions: Homo sapiens
# HUVEC [36] = assay: Effect on TNF-alpha-induced NF-kappaB activation in HUVEC preincubated for 4 hrs assessed as increase in p50 level after 0.5 hrs of TNFalpha challenge by electrophoretic shift mobility assay; format: cell-based; conditions: Homo sapiens
# HUVEC [37] = assay: Inhibition of LPS-induced tissue factor protein expression in HUVEC preincubated for 4 hrs assessed after 4 hrs of LPS challenge by Western blotting; format: functional, cell-based; conditions: Homo sapiens
# HUVEC [38] = assay: Effect on TNF-alpha-induced NF-kappaB activation in HUVEC preincubated for 4 hrs assessed as increase in p65 level after 0.5 hrs of TNFalpha challenge by electrophoretic shift mobility assay; format: cell-based; conditions: Homo sapiens
# [39] = target: Tissue factor (Homo sapiens) (UniProt P13726); conditions: HUVEC, 3 uM
# Description: Inhibition of TNF-alpha-induced tissue factor activity in HUVEC at 3 uM preincubated for 4 hrs assessed after 4 hrs of TNFalpha challenge by one stage clotting assay
# [40] = target: Tissue factor (Homo sapiens) (UniProt P13726); conditions: HUVEC, 1 uM
# Description: Inhibition of LPS-induced tissue factor activity in HUVEC at 1 uM preincubated for 4 hrs assessed after 4 hrs of LPS challenge by one stage clotting assay
# Tissue factor (Homo sapiens), sequence (P13726 whole entry): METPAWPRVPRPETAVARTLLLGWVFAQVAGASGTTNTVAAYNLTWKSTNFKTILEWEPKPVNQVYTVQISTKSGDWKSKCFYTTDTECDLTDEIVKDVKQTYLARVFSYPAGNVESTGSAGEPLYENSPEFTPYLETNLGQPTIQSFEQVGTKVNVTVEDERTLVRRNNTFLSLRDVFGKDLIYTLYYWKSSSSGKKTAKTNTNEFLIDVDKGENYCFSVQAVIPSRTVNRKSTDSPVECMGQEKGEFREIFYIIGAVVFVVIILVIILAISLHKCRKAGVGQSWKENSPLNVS
smiles,measurement,setting,value
CCCC(CCC)C(=O)O,inhibition,[1],81%
same,inhibition,[2],93%
CCCC(=O)[O-].[Na+],inhibition,[3],90%
same,inhibition,[4],95%
Nc1ccccc1NC(=O)c1ccc(CNC(=O)OCc2cccnc2)cc1,inhibition,[5],92%
same,inhibition,[6],85%
CC(/C=C/C(=O)NO)=C\[C@@H](C)C(=O)c1ccc(N(C)C)cc1 [TRICHOSTATIN],Activity,HUVEC [7],inactive
same,Activity,HUVEC [8],inactive
same,Activity,HUVEC [9],Active
same,Activity,HUVEC [10],Active
same,inhibition,[11],95%
same,Activity,HUVEC [12],inactive
same,Activity,HUVEC [13],Active
same,Activity,HUVEC [14],Active
same,Activity,HUVEC [15],Active
same,Activity,Mus musculus,50%
same,Activity,HUVEC [16],Active
same,Activity,HUVEC [17],Active
same,Activity,HUVEC [18],inactive
same,inhibition,[19],60%
same,Activity,HUVEC [20],inactive
same,Activity,HUVEC [21],inactive
same,Activity,HUVEC [22],Active
same,inhibition,[23],60%
same,Activity,HUVEC [24],Active
same,Activity,HUVEC [25],Active
same,inhibition,[26],60%
same,inhibition,[27],60%
same,Activity,HUVEC [28],inactive
same,Activity,HUVEC [29],inactive
same,Activity,HUVEC [30],inactive
same,inhibition,[31],91%
same,Activity,HUVEC [32],75%
same,Activity,HUVEC [33],inactive
same,Activity,HUVEC [34],inactive
same,Activity,HUVEC [35],Active
same,Activity,HUVEC [36],inactive
same,Activity,HUVEC [37],Active
same,Activity,HUVEC [38],inactive
"CCC(=O)CCCCC[C@@H]1NC(=O)[C@H]2CCCCN2C(=O)[C@H](C(C)CC)NC(=O)[C@H](Cc2cn(OC)c3ccccc23)NC1=O (single isomer, unassigned)",inhibition,[39],85%
same,inhibition,[40],80%
